The conditions of series [1]: cited from earlier work.
Another series concerns HIV. Conditions: twice-yearly SC 927 mg (two 1.5 mL injections of 309 mg/mL), oral loading 600 mg days 1 and 2; cited from earlier work.
For series [2] the following is noted: in vivo, sc; cited from earlier work.
A further series deals with HIV-1. Description: In vitro protein binding-adjusted 95% effective concentration (paEC95) and inhibitory quotient. Format: cell-based.

We go through 1 compound from US20260014130A1, “FORMULATIONS OF CAPSID INHIBITOR” (Gilead Sciences, Inc., priority 2024, published 2026).

On to `CC(C)(C#Cc1ccc(-c2ccc(Cl)c3c(NS(C)(=O)=O)nn(CC(F)(F)F)c23)c([C@H](Cc2cc(F)cc(F)c2)NC(=O)Cn2nc(C(F)(F)F)c3c2C(F)(F)[C@@H]2C[C@H]32)n1)S(C)(=O)=O` [lenacapavir], for which the “systemic lenacapavir exposures relative to those achieved with the intramuscular formulations” value in series [1] (observed previously, well tolerated) is reported as “approximately 3 fold”. Moreover, the “mean Cmax” value in series [1] (supratherapeutic total dose of 9600 mg of oral lenacapavir) was 1070.4 ng/mL. In addition, in the series with HIV, the “efficacy in cisgender men and gender-diverse people” value is given as 99.9%; the “efficacy in cisgender women” value is on record as 100%. In series [2], the “highest observed mean concentration” value was 72.1 ng/mL. For the same compound, in the series with HIV-1, the “in vitro paEC95 (protein binding-adjusted 95% effective concentration)” value is on record as 3.87 ng/mL. The “inhibitory quotient-4 (IQ4; 4-fold in-vitro protein binding-adjusted 95% effective concentration)” value in the series with HIV-1 (plasma concentration threshold) amounted to 15.5 ng/mL.
